Data taken from patent publication US8557792B2, “Method of treating vitamin B12 deficiency” (priority 2007, dated 2013).

How the values were obtained:
[1] = Serum cyanocobalamin pharmacokinetics after dosing human subjects; assay type: in vivo; settings: healthy male subjects, fasted, single intravenous dose 1 mg cyanocobalamin, 4 subjects
Description: Sixteen healthy male subjects were randomized to receive one of the following treatments: • (1) Treatment B: a single oral dose of cyanocobalamin/SNAC (5 mg cyanocobalamin/100 mg SNAC) administered in the fasted state as a tablet. (6 subjects); • (2) Treatment C: a single oral dose of cyanocobalamin alone (5 mg cyanocobalamin, VitaLabs, commercial) administered in the fasted state as a tablet. (6 subjects). • (3) Treatment D: a single intravenous dose of cyanocobalamin (1 mg cyanocobalamin) administered in the fasted state. (4 subjects). Each subject received a 1 mL intravenous injection of a 1 mg/mL (1000 μg/mL) solution resulting in a total dose of 1 mg cyanocobalamin.
The subjects were fasted overnight prior to dosing and had no liquids (including water) consumption for at least one hour before and after dosing. The oral forms of cyanocobalamin/SNAC tablets were administered in a single dose as tablets with 50 mL of plain water. Twenty-five blood samples were drawn for cyanocobalamin analyses at the following time points: within 30 minutes pre-dose and at Minutes 2, 5, 10, 20, 30, 40, 50, and at Hours 1, 1.5, 2, 3, 4, 5, 6, 7, 8, 9, 10, 11, 12, 14, 16, 20 and 24 post-dose.
Pharmacokinetic metrics was obtained following a model independent pharmacokinetic analysis of individual cyanocobalamin concentrations. Descriptive statistics was used to summarize the results.

[2] = Vitamin B12 absorption (plasma PK) after dosing Sprague-Dawley rats; assay type: in vivo; settings: male rats
Description: Tablets with four types of different ingredients were made as follows: (1) 8.8 mg of vitamin B12, 35 mg of SNAC were weighed, thoroughly mixed and made into a tablet for dosing on rat; (2) 8.8 mg of vitamin B12, 35 mg of SNAC and 5 mg of Capmul PG-8 were weighed, thoroughly mixed and made into a tablet; (3) 8.8 mg of vitamin B12, 35 mg of SNAC and 0.9 mg of Providone were weighed, thoroughly mixed and made into a tablet. Each of the four processes was repeated to produce more tablets.
Male Sprague-Dawley rats (325-350 g) were dosed with vitamin B12 intravenously (0.5 mg/kg) alone, or orally with the tablets made in Example 4 at a dose of 50 mg/kg vitamin B12 alone or in combination with SNAC at 200 mg/kg. Blood samples were collected at 0, 3, 10, 20, 30, 60, 120, 240 and 360 minutes post dosing. Plasma samples were analyzed for B12 by RIA. The model independent PK metrics obtained following B12-SNAC combination were compared to those obtained following B12 alone.

[3] = IV, 0.5 mg/kg vitamin B12, N = 5
[4] = PO tablet, 50 mg/kg vitamin B12 (alone or with 200 mg/kg SNAC), N = 5

| Substance | Mean B12 peak concentration (Cmax) [1] | mean AUClast (0-24) [1] | AUC Mean [2, 3] | Tmax Mean [2, 3] | Cmax Mean ([2]; IV, 0.5 mg/kg vitamin B12, plasma B12 by RIA, N = 5) | AUC Mean [2, 4] | Tmax Mean [2, 4] | Cmax Mean ([2]; PO tablet, 50 mg/kg vitamin B12 (alone or with 200 mg/kg SNAC), plasma B12 by RIA, N = 5) | Mean Bioavailability ([2]; PO tablet, 50 mg/kg vitamin B12 (alone or with 200 mg/kg SNAC), versus IV) |
| --- | --- | --- | --- | --- | --- | --- | --- | --- | --- |
| cyanocobalamin | 221.287 ± 80.248 ng/mL | 215.391 ± 44.602 ng·h/mL | – | – | – | – | – | – | – |
| Vitamin B12 | – | – | 65.84 µg·min/mL | 4.4 min | 2150 ng/mL | 28.72 µg·min/mL | 52 min | 140 ng/mL | 0.42% |
